# Laboratory results published in PMC11053944, “FRET Assays for the Identification of C. albicans HSP90-Sba1 and Human HSP90α-p23 Binding Inhibitors” (Pharmaceuticals, 2024).
# Entries after “also recorded” stand apart in the source; their conditions may differ. Where two headings read alike, the source gives them in different places.
# What was measured:
# [1] = biological target: T1, C. albicans HSP90-mNeonGreen–Sba1-mScarlet-I binding (Candida albicans, UniProt P46598, E36A)
# T1 construct: made in house; host or cells: E. coli BL21(DE3)
# Experimental: (§1) In this investigation, 1 µM HSP90-mNeonGreen was incubated with 2 µM Sba1-mScarlet-I in reaction buffer containing 5 mM ATP either alone (UC) or with the addition of 20 µM Sba1. As a negative control, samples containing 20 µM bovine serum albumin (BSA) were used.
# (§2) FRET experiments were carried out in 384-well microtiter plates (Art. No. 3766 Corning, NY, USA, or Art. No. 781906, Greiner Bio-One GmbH, Frickenhausen, Germany) containing a final volume of 20 µL and measured with a microplate reader Infinite M200Pro (Tecan, Männedorf, Switzerland). The fluorescence was measured in three channels: excitation (ex.): 488 nm/emission (em.): 525 nm (mNeonGreen fluorescence), ex.: 561 nm/em.: 610 nm (mScarlet-I fluorescence) and the FRET channel ex.: 488 nm/em.: 610 nm. The excitation and emission bandwidths were set to 9 and 20 nm, respectively. Experiments for the determination of the equilibrium dissociation constants were performed with a filter-based microplate reader Infinite F200Pro (Tecan, Männedorf, Switzerland). The fluorescence was measured in three channels using the following filters: ex.: 485 ± 20 nm/em.: 535 ± 20 nm (mNeonGreen channel), ex.: 535 ± 20 nm/em.: 612 ± 10 nm (mScarlet-I channel) and the FRET channel ex.: 485 ± 20 nm/em.: 612 ± 10 nm. FRET emission (EmFRET) was calculated according to Song et al. 2011 [81]:(1) EmFRET=FLDA−x×FLDD−(y×FLAA) where FLDA is the fluorescence signal of the FRET channel and FLDD and FLAA are fluorescence signals from the mNeonGreen and mScarlet-I channels, respectively. The correction factors x and y were calculated as follows:(2) x=FLDA/FLDD for samples containing only the donor fluorophore or fluorescent fusion proteins with mNeonGreen and (3) y=FLDA/FLAA for samples containing only the acceptor fluorophore or fluorescent fusion proteins with mScarlet-I in the same concentration as samples containing both the donor and acceptor.
# All experiments were carried out in reaction buffer (40 mM HEPES/KOH pH 7.5, 20 mM KCl, 5 mM MgCl2, 20 mM Na2MoO4, Triton-X 100 0.1%). HEPES and KCl were purchased from AppliChem, Darmstadt, Germany. […]
# [2] = biological target: T2, human HSP90α-mNeonGreen–p23-mScarlet-I binding (Homo sapiens, UniProt P07900, E47A); experiment: FRET characterization of model inhibitors and ATP on human HSP90α-p23 binding
# T2 construct: made in house; host or cells: E. coli Rosetta2(DE3) pLysS
# Experimental: as §1, §2
# All experiments were carried out in reaction buffer (40 mM HEPES/KOH pH 7.5, 20 mM KCl, 5 mM MgCl2, 20 mM Na2MoO4, Triton-X 100 0.1%). HEPES and KCl were purchased from AppliChem, Darmstadt, Germany. KOH and MgCl2 were obtained from VWR Chemicals, Darmstadt, Germany. Na2MoO4 was from Merck, Darmstadt, Germany. Triton-X 100 was purchased from Serva, Heidelberg, Germany.
# For C. albicans Sba1 competition experiments for HSP90-mNeonGreen–Sba1-mScarlet-I binding, 1 µM HSP90-mNeonGreen and 1 µM Sba1-mScarlet-I were incubated with varying concentrations of Sba1 in a range of 0–25,000 nM (lowest non-zero concentration 12 nM) in reaction buffer containing 5 mM ATP. The experiment was performed twice in nonaplicates. For human p23 competition experiments for HSP90α-mNeonGreen–p23-mScarlet-I binding, 1 µM HSP90α-mNeonGreen and 1 µM p23-mScarlet-I were incubated with varying concentrations of p23 in a range of 0–50 000 nM (lowest non-zero concentration 23 nM) in reaction buffer containing 5 mM ATP. The experiment was performed twice in hexaplicates. […] The experiment was performed thrice in triplicates. […] The IC50,rel values were calculated using the equation log (inhibitor) vs. response-variable slope (four parameters) in GraphPad Prism 5. Ki values for inhibition of HSP90-mNeonGreen–Sba1-mScarlet-I/p23-mScarlet-I binding by non-labeled Sba1/p23 were calculated with One Site—Fit Ki in GraphPad Prism 5. […] The EC50,rel values were calculated using the log (agonist) vs. response-variable slope (four parameters) equation in GraphPad Prism 5.
# [3] = biological target: T3, C. albicans HSP90–Sba1 binding (Candida albicans, UniProt P46598); experiment: FRET inhibitor screening assay, C. albicans HSP90-Sba1 binding; settings: 10 or 100 µM (Sba1 20 µM), triplicates, 3 mM ATP, 1% DMSO, 15 min 30 °C
# T3 construct: made in house; host or cells: E. coli BL21(DE3)
# Text: We used the Z′ factor (Z′) to optimize the FRET assays for screening purposes. Z′ represents a simple statistical parameter for the quality assessment and optimization of HTS assays and screening assays in general. It is a measure that determines the degree of signal separation between binding and non-binding data sets. Calculation of the Z′ factor is based on the standard deviation of the individual data sets as well as their general signal separation. Values ≥ 0.5 can be classified as excellent for screening purposes. […] When the fluorescent fusion proteins of HSP90 and co-chaperones bind to each other, FRET occurs between donor and acceptor fluorophores, and the sensitized emission (EmFRET) signal increases. Consequently, the fluorescence intensity of the donor decreases (FLDD). […] To obtain an informative Z′ value, we calculated it based on at least three independent experiments amounting to 144 samples for both binding and non-binding control data sets (Figure 4B,E). […] We defined the ‘hit threshold’ as a decrease in readout signal of more than 3 standard deviations (SDs) from the mean signal of the binding control. This constitutes a common threshold for hit identification in HTS campaigns.
# as §2
# For screening for the identification of ATP-competitive C. albicans HSP90 and HSP90-Sba1 binding inhibitors, 10 µL of HSP90-mNeonGreen ([…]) in HEPES buffer (40 mM HEPES/KOH pH 7.5, 20 mM KCl) was mixed with 10 µL of 200 µM compound solution in 2x reaction buffer (40 mM HEPES/KOH pH 7.5, 20 mM KCl, 10 mM MgCl2, 40 mM Na2MoO4, Triton-X 100 0.2%), 6 mM ATP, 2% DMSO, resulting […] Samples for binding control (3 mM ATP, final concentration) and non-binding control (no ATP) were prepared in the same manner without compounds. The samples were incubated for 15 min at 30 °C prior to measurement.
# human HSP90α–p23 binding = biological target: T4, human HSP90α–p23 binding (Homo sapiens, UniProt P07900); experiment: FRET inhibitor screening assay, human HSP90α-p23 binding; settings: 10 or 100 µM, triplicates, 3 mM ATP, 1% DMSO, 15 min 37 °C
# T4 construct: made in house; host or cells: E. coli Rosetta2(DE3) pLysS
# Text: We used the Z′ factor (Z′) to optimize the FRET assays for screening purposes. Z′ represents a simple statistical parameter for the quality assessment and optimization of HTS assays and screening assays in general. It is a measure that determines the degree of signal separation between binding and non-binding data sets. Calculation of the Z′ factor is based on the standard deviation of the individual data sets as well as their general signal separation. Values ≥ 0.5 can be classified as excellent for screening purposes. […] When the fluorescent fusion proteins of HSP90 and co-chaperones bind to each other, FRET occurs between donor and acceptor fluorophores, and the sensitized emission (EmFRET) signal increases. Consequently, the fluorescence intensity of the donor decreases (FLDD). […] We defined the ‘hit threshold’ as a decrease in readout signal of more than 3 standard deviations (SDs) from the mean signal of the binding control. This constitutes a common threshold for hit identification in HTS campaigns.
# The excitation and emission bandwidths were set to 9 and 20 nm, respectively. Experiments for the determination of the equilibrium dissociation constants were performed with a filter-based microplate reader Infinite F200Pro (Tecan, Männedorf, Switzerland). […] The correction factors x and y were calculated as follows:(2) x=FLDA/FLDD for samples containing only the donor fluorophore or fluorescent fusion proteins with mNeonGreen and (3) y=FLDA/FLAA for samples containing only the acceptor fluorophore or fluorescent fusion proteins with mScarlet-I in the same concentration as samples containing both the donor and acceptor.
# For screening for the identification of ATP-competitive C. albicans HSP90 and HSP90-Sba1 binding inhibitors, 10 µL of HSP90-mNeonGreen (2 µM) and Sba1-mScarlet-I (4 µM) in HEPES buffer (40 mM HEPES/KOH pH 7.5, 20 mM KCl) was mixed with 10 µL of 200 µM compound solution in 2x reaction buffer (40 mM HEPES/KOH pH 7.5, 20 mM KCl, 10 mM MgCl2, 40 mM Na2MoO4, Triton-X 100 0.2%), 6 mM ATP, 2% DMSO, resulting ultimately in constant HSP90-mNeonGreen concentrations of 1 µM and Sba1-mScarlet-I 2 µM in reaction buffer. Samples for binding control (3 mM ATP, final concentration) and non-binding control (no ATP) were prepared in the same manner without compounds. The samples were incubated for 15 min at 30 °C prior to measurement. The assay for the human HSP90α–p23 binding inhibitor identification was performed analogously, with the exception that samples were incubated for 15 min at 37 °C prior to measurement. Since binding samples show both a high EmFRET as well as a reduction in donor emission (FLDD), we calculated the quotient (EmFRET/FLDD) to derive an improved signal separation and robustness. The nucleoside-mimetics library was obtained from Enamine (catalog No. NML-320-X-20, Enamine Ltd., Kyiv, Ukraine). Z′ and Z factors were calculated based on Zhang et al..
# HSP90 - Sba1/p23 binding = settings: according to literature, cited from earlier work
# T3 sequence (P46598 whole entry): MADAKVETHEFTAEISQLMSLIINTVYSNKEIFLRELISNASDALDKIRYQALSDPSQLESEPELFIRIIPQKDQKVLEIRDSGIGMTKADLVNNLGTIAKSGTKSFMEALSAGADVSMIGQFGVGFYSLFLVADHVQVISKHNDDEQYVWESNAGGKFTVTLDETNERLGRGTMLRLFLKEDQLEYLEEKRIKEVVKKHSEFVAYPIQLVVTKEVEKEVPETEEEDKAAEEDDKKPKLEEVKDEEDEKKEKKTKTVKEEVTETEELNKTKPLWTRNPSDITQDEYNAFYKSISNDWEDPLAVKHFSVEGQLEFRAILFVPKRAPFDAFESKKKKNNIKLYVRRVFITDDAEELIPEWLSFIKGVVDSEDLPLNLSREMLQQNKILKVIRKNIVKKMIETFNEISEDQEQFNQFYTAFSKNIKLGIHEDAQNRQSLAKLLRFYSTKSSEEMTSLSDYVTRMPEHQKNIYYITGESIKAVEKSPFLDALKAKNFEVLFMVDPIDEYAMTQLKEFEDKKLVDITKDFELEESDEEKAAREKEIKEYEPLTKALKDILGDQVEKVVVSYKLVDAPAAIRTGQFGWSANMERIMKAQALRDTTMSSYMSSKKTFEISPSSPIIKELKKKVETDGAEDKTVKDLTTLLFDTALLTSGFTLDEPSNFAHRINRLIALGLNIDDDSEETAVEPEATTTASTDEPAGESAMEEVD
# T1 sequence (P46598 whole entry, stated change not applied): as the sequence (P46598 whole entry) above
SMILES,hit identification (EmFRET/FLDD decrease of more than 3 SDs from binding control mean) [3],hit identification (EmFRET/FLDD decrease of more than 3 SDs from binding control mean) (human HSP90α–p23 binding),Influence on p23/Sba1 binding (HSP90 - Sba1/p23 binding),other results
Nc1ncnc2c1ncn2[C@@H]1O[C@H](COP(=O)(O)OP(=O)(O)OP(=O)(O)O)[C@@H](O)[C@H]1O [ATP],,,,"concentration at which maximum binding was reached ([1]; 1 µM HSP90E36A-mNeonGreen, 2 µM Sba1-mScarlet-I): ~ 3 mM; EC50 ([1]; 1 µM donor, 2 µM acceptor, ATP 0–12,500 µM, read-out: EC50,rel, influence on HSP90E36A-mNeonGreen–Sba1-mScarlet-I binding): 220 ± 40 µM; concentration at which maximum binding was reached ([2]; 1 µM HSP90αE47A-mNeonGreen, 2 µM p23-mScarlet-I): ~ 3 mM; EC50 ([2]; 1 µM donor, 2 µM acceptor, read-out: EC50,rel, influence on HSP90αE47A-mNeonGreen–p23-mScarlet-I binding): 210 ± 30 µM"
"O=C(O[C@@H]1Cc2c(O)cc(O)cc2O[C@@H]1c1cc(O)c(O)c(O)c1)c1cc(O)c(O)c(O)c1 [EGCG, (−)-Epigallocatechin-3-gallate]",pan-assay interfering compound (PAIN),strong decrease in FRET emission; also recorded: pan-assay interfering compound (PAIN),Yes,
"CCNC(=O)c1noc(-c2cc(C(C)C)c(O)cc2O)c1-c1ccc(CN2CCOCC2)cc1 [NVP-AUY922, luminespib]",reliably identified as hits,,Yes,hit identification (EmFRET/FLDD decrease of more than 3 SDs from binding control mean) ([3]; listed as luminespib): reliably identified as disrupting HSP90-Sba1 binding
CC1=C(O)C(=O)C=C2C1=CC=C1[C@@]2(C)CC[C@@]2(C)[C@@H]3C[C@](C)(C(=O)O)CC[C@]3(C)CC[C@]12C [celastrol],show no influence,show no influence,No and not influence,
COc1cc2c(cc1OC)[C@@H]1C(=O)c3ccc4c(c3O[C@@H]1CO2)C=CC(C)(C)O4 [deguelin],do not show an effect; also recorded: show no influence,show no influence,,
C[C@@H]1C[C@H]2O[C@@H]2/C=C\C=C\C(=O)Cc2c(Cl)c(O)cc(O)c2C(=O)O1 [radicicol],reliably identified as disrupting HSP90-Sba1 binding; also recorded: reliably identified as hits,,Yes,
COc1cc(C2Oc3cc([C@H]4Oc5cc(O)cc(O)c5C(=O)[C@@H]4O)ccc3OC2CO)ccc1O (some centres unmarked) [silibinin],do not show an effect; also recorded: show no influence,show no influence,,
CC1=C(CO)C(=O)O[C@@H]([C@@H](C)[C@H]2CC[C@H]3[C@@H]4C[C@H]5O[C@]56[C@@H](O)C=CC(=O)[C@]6(C)[C@H]4CC[C@]23C)C1 [withaferin A],do not show an effect; also recorded: show no influence,show no influence,not influence,Influence on p23/Sba1 binding (HSP90 - Sba1/p23 binding; listed as Withaferin A): No
